{"source": "patent US20100130526A1", "about": "“Methods for Disease Therapy” (priority 2008, published 2010)", "format_in_all_cases": "in vivo, human", "key": {"KPNA6 mRNA": {"test_system": "KPNA6 mRNA", "assay": "Microarray analysis of KPNA6 mRNA expression in PBMC of malaria patients before and after chloroquine therapy", "conditions": "data set GSE5418", "text": "(§1) (See FIG. 12). […] (See FIG. 12)."}, "NLRP3 mRNA": {"test_system": "NLRP3 mRNA", "assay": "Microarray analysis of NLRP3 mRNA expression in PBMC of malaria patients before and after chloroquine therapy", "conditions": "disease-increased level (2.7-fold), p=0.024, data set GSE5418", "text": "as §1"}, "[1]": {"test_system": "principal components of nuclear import and inflammasome pathways", "assay": "Gene expression phenotypes of nuclear import and inflammasome pathways in PBMC of chloroquine-treated malaria patients", "conditions": "PBMC of malaria patients treated with chloroquine"}, "NLRP1 mRNA": {"test_system": "NLRP1 mRNA", "assay": "Microarray analysis of NLRP1 mRNA expression in PBMC of malaria patients before and after chloroquine therapy", "conditions": "disease-decreased level (1.4-fold), p=0.016, data set GSE5418", "text": "as §1"}, "KPNA1 mRNA": {"test_system": "KPNA1 mRNA", "assay": "Microarray analysis of KPNA1 mRNA expression in PBMC of malaria patients before and after chloroquine therapy", "conditions": "disease-decreased level (3.9-fold), p=0.0015, data set GSE5418", "text": "as §1"}}, "data": [{"smiles": "CCN(CC)CCCC(C)Nc1ccnc2cc(Cl)ccc12", "note": "(centres unmarked) [chloroquine]", "values": [{"measurement": "KPNA6 mRNA expression change after chloroquine therapy", "setting": "KPNA6 mRNA", "value": "do not manifest statistically significant changes"}, {"measurement": "NLRP3 mRNA expression reduced after chloroquine therapy", "setting": "NLRP3 mRNA", "value": 57, "unit": "%"}, {"measurement": "Effect on aberrant disease-associated gene expression phenotypes (KPNA1, NLRP1, NLRP3)", "setting": "[1]", "value": "partial reversal of the aberrant gene expression phenotypes"}, {"measurement": "NLRP1 mRNA expression elevated after chloroquine therapy", "setting": "NLRP1 mRNA", "value": 13, "unit": "%"}, {"measurement": "KPNA1 mRNA expression elevated after chloroquine therapy", "setting": "KPNA1 mRNA", "value": 66, "unit": "%"}]}]}
